Measurements taken from patent publication US12268747B2, “Polypeptides having anti-senescent effects and uses thereof” (OneSkin, Inc., priority 2019, dated 2025).
Peptide text beside a SMILES is read from it.

Experiments:
[1] = system: human primary fibroblasts isolated from 3 healthy donors, UVB exposed; assay: UVB-induced senescence in fibroblasts; type: cell-based; conditions: 5 μM, 48 hours after UVB
Experimental: Cellular senescence may be caused by several different stimuli. In order to assess whether Peptide 14 was effective against UVB-induced and chemically-induced senescence, human primary fibroblasts isolated from 3 healthy donors were used. These cells were cultured in DMEM (Dulbecco's Modified Eagle's Medium) supplemented with 10% v.v. fetal bovine serum (FBS), and 1% v.v. of penicillin/streptomycin solution (1,000 U·mL−1). Cells were kept in a 5% CO2, 37° C. and 95% humidity atmosphere. After expansion, these cells were seeded in 96-well plates (4,000 cells per well) and, 6 hours after plating, were submitted to either etoposide (20 μM) treatment for 24 hours, or exposed twice to 0.05 J/cm^2 of UVB radiation. […] After incubation, relative cellular senescence (assessed by the activity of senescence associated β-galactosidase staining relative to untreated control) was analyzed and plotted in column graphs. ATRX foci were also assessed following ATRX immunofluorescence staining. Graphs were built using the average ATRX foci detected per nuclei. […] Data was analyzed using with either t-test or ANOVA followed by a Bonferroni post-hoc test. Statistical significance was determined as p-values equal or lower than 0.05 (FIG. 6).

[2] = system: Human primary fibroblasts isolated from 3 healthy chronologically aged (elder) donors; assay: 3-week exposure: SA-β-galactosidase senescence and proliferation; type: cell-based; conditions: 3.12 μM, counted at days 7, 14, 21, 28
Experimental: Human primary fibroblasts isolated from 3 healthy chronologically aged (elder) donors were used. These cells were cultured in DMEM (Dulbecco's Modified Eagle's Medium) supplemented with 10% v.v. fetal bovine serum (FBS), and 1% v.v. of penicillin/streptomycin solution (1,000 U·mL−1). Cells were kept in a 5% CO2, 37° C. and 95% humidity atmosphere. After expansion, these cells were seeded in T-75 flasks (250,000 cells per flask) and, 6 hours after plating, were incubated for 3 weeks (21 days) with Peptide 14 at 3.12 μM. A negative control comprised untreated cells, which received vehicle only. Day 0 was defined as the day cells started to be treated with Peptide 14. No Peptide 14 treatment was performed between days 21 and 28. Weekly, cellular senescence was assessed according to senescence associated β-galactosidase staining levels. Data was normalized to untreated group and plotted (FIG. 4, panel A). Cellular proliferation was also determined weekly. At days 7, 14, 21, and 28, cells were trypsinized and counted (FIG. 4, panel B). After counting, 250,000 cells were plated in new T-75 flasks. Three independent experiments (biological replicates) including three technical replicates were performed. Data was analyzed using T-test. Statistical significance was determined as p values equal or lower than 0.05.

Caenorhabditis elegans = assay: C. elegans healthspan and lifespan; type: in vivo; conditions: 1 μM and 2 μM, no decrease in worm movement at either time point
Experimental: Senotherapeutic strategies can be linked to healthspan and lifespan extension in vivo. In order to assess whether Peptide 14 promotes extended healthspan and lifespan, Caenorhabditis elegans worms were used. Peptide 14 was added in the worm media (M9 buffer media) at different concentrations of 1 μM or 2 μM. Negative control worms received vehicle only. Two healthspan parameters were assessed i) pharyngeal pumping and ii) worm movement. Lifespan was also determined. For pharyngeal pumping analysis, 15 worms had their pharynx movement (pumping) observed daily and counted for 20 seconds. This experiment was repeated 3 times, by 2 different blind observers, employing different populations of animals at different days. Statistical difference was detected by analyzing each individual time point by One-Way ANOVA and Dunnet's post hoc test. All groups were compared with the H2O group. For worm movement analysis, the basic movement of C. elegans, also called thrashing, was measured daily for 15 worms. […] Statistical difference was detected by analyzing each individual time point by One-Way ANOVA and Dunnet's post hoc, and all groups were compared with the H2O group. […] The average lifespan was measured. Statistical difference was detected by analyzing each individual time point by One-Way ANOVA and Dunnet's post hoc, and all groups were compared with the H2O group (FIG. 18).

[3] = system: Primary fibroblasts isolated from 3 healthy chronologically aged patients; assay: SA-B-galactosidase senescence in fibroblasts of aged donors, concentration series; type: cell-based, human; conditions: 1.56-50 μM (Peptide 16: 1.56-25 μM), 48 hours; in at least one of the tested concentrations
Experimental: Primary fibroblasts isolated from 3 healthy chronologically aged patients were used. Cells were cultured in DMEM (Dulbecco's Modified Eagle's Medium) supplemented with 10% v.v. fetal bovine serum (FBS), and 1% v.v. of penicillin/streptomycin solution (1,000 U·mL−1). Cells were kept in a 5% CO2, 37° C. and 95% humidity atmosphere. After expansion, these cells were seeded in 96-well plates (4,000 cells per well) and, 6 hours after plating the cells were treated with one of 4 senotherapeutic polypeptides (Peptide 14, Peptide 13, Peptide 15, and Peptide 16) and incubated for 48 hours. Each polypeptide was tested at 6 different concentrations: 50 μM, 25 μM, 12.5 μM, 6.25 μM, 3.12 μM, and 1.56 μM, except for Peptide 16, which was tested at 5 different concentrations: 25 μM, 12.5 μM, 6.25 μM, 3.12 μM, and 1.56 μM. A negative control comprised untreated cells, which received vehicle only. After incubation, relative cellular senescence (assessed by the activity of senescence associated B-galactosidase staining relative to untreated control) was analyzed (FIG. 2, panels A-D), in which the Y axis indicates the relative senescence levels normalized to untreated control. Each column corresponds to a different concentration of a polypeptide. Three independent experiments (biological replicates) including three technical replicates were performed. Data was analyzed using Analysis of Variance (ANOVA) and a Bonferroni post-hoc tests. Statistical significance was determined as p values equal or lower than 0.05.

[4] = system: human skin equivalents from elder donors; assay: Human skin equivalents: histology score and morphology (Example 18); type: cell-based; conditions: 0.01% w/v (or 1 μM), 5 days; vehicle control 21.00
Experimental: To test the effect of Peptide 13 and Peptide 14 treatment on human skin models and the skin morphology, human primary fibroblasts and keratinocytes isolated from healthy elder donors were used to build human skin equivalents. The skin equivalents were treated with 0.01% w/v (or 1 μM) of Peptide 13 or Peptide 14 for 5 days. The negative controls were treated with formulation only. After the 5-day culture, the skin equivalents were analyzed for epidermal thickness, which was quantified according to total epidermal area. Quality assessment based several parameters was performed by blind analysts. […] A minimal score of 19 was required for batch use. This score was validated internally and shown to decrease with age/senescence of the skin equivalents or cultured cells. Three independent experiments were performed with three technical replicates. Data were analyzed using a t-test. Statistical significance was determined as p-values equal or lower than 0.05. The statistically significant p-values are noted by * for p<0.05; ** for p<0.01; *** for p<0.001; **** for p<0.0001 between the groups.

[5] = system: p16, BLIMP1, ZYG11B, IL-8, Ki-67, ZIC1, MMP1, HAS2 mRNA in 3D skin equivalents; assay: 3D skin equivalents: relative mRNA expression of senescence, aging and health markers; type: cell-based, human
Experimental: 3D skin equivalent sections of samples built with cells from elder donors ([…]) were treated with 1 μM Peptide 14 or Peptide 13, or 20 μM Retinoic Acid (RA) and assessed for the effect of the various treatments of various markers of senescence, aging, and health.
Data are presented as 2-ddCt normalized to GAPDH and untreated control. *p<0.05. Peptide 13 and Peptide 14-treated samples generally had similar relative mRNA expression levels for p16, BLIMP1, ZYG11B, IL-8, and Ki-67 in the epidermal layer, and for p16, MMP1, HAS2, IL-8, and Ki-67 in the dermal layer. Peptide 13 and Peptide 14-treated samples generally had lower relative mRNA expression levels than RA-treated samples for p16, BLIMP1, ZYG11B, IL-8, in the epidermal layer and for p16, MMP1, IL-8, and Ki-67 in the dermal layer. Peptide 13 and Peptide 14-treated samples generally had higher relative mRNA expression levels than RA-treated samples for Ki-67 in the epidermal layer and for HAS2 for the dermal layer. Peptide 13 and Peptide 14-treated samples had similar relative mRNA expression levels as RA-treated samples for ZIC1 and Ki-67 for dermal layer.

fibroblasts, UVB exposed = assay: SA-B-galactosidase staining in UVB-exposed fibroblasts (Example 8); type: cell-based, human; conditions: 48 hours after UVB 2 x 0.05 J/cm^2
Experimental: (§1) In order to shed light into the mechanism of action of Peptide 14 and similar Peptide 13, Akt S473 phosphorylation (FIG. 8, panel A), senescence associated β-galactosidase staining (FIG. 8, panel B), as well as mRNA expression (FIG. 8, panel C) were investigated. For Akt S473 phosphorylation analysis using western blotting, human primary fibroblasts and keratinocytes were used. These cells were used to build human skin equivalents, which were kept in a 5% CO2, 37° C. and 95% humidity atmosphere air liquid interface. Then, skin equivalents were treated with 1 μM of either Peptide 14 or Peptide 13 for 5 days, and protein analysis was performed on the skin equivalents. Protein was isolated and quantified. Equal amounts of protein were loaded in polyacrylamide gels and transferred into a nitrocellulose membrane. […] Relative pAkt S473/GAPDH signal was compared between treated and non-treated samples. For senescence associated B-galactosidase staining experiments, fibroblasts were used. […] Total RNA was isolated, samples were reverse transcribed, and mRNA expression of GAPDH, sirtuin 6 (SIRT6), BLM, and exonuclease 1 (EXO1) genes were determined using qPCR. […] CT values were analyzed using the 2^−ΔΔCt method. […] Data was analyzed using a T-test. Statistical significance was determined as p values equal or lower than 0.05 (FIG. 8).

pAkt S473 = assay: Akt S473 phosphorylation western blot in human skin equivalents; type: cell-based; conditions: 1 μM, 5 days
Experimental: as §1

[6] = 1 μM peptide vs 20 μM Retinoic Acid

relative cellular senescence (SA-B-galactosidase staining) vs untreated control [3]	relative mRNA, Peptide 13 vs Peptide 14: p16, BLIMP1, ZYG11B, IL-8, Ki-67 (epidermal); p16, MMP1, HAS2, IL-8, Ki-67 (dermal) ([5]; 1 μM each)	relative mRNA vs RA-treated samples: Ki-67 (epidermal), HAS2 (dermal) [5, 6]	relative mRNA vs RA-treated samples: ZIC1 and Ki-67 (dermal) [5, 6]	relative mRNA vs RA-treated samples: p16, BLIMP1, ZYG11B, IL-8 (epidermal); p16, MMP1, IL-8, Ki-67 (dermal) [5, 6]	SA-B-galactosidase staining in UVB-exposed samples (fibroblasts, UVB exposed)	Compound	cell number [1]	cell proliferation vs untreated control [2]	toxicity to C. elegans (worm movement) (Caenorhabditis elegans)	mean of histology scores (maximum 28) [4]	pAkt S473 in dermal samples (pAkt S473)	pAkt S473 in epidermal samples (pAkt S473)
–	–	–	–	–	–	CC[C@H](C)[C@H](NC(=O)CNC(=O)[C@H](CCCCN)NC(=O)[C@H](CC(C)C)NC(=O)[C@H](Cc1c[nH]c2ccccc12)NC(=O)[C@H](Cc1c[nH]cn1)NC(=O)[C@H](CCCCN)NC(=O)[C@H](C)NC(=O)[C@@H](NC(=O)[C@@H](N)CCC(=O)O)[C@@H](C)O)C(=O)O [Peptide 14, ETAKHWLKGI] (H-ETAKHWLKGI-OH; N-terminus and C-terminus assumed)	did not significantly alter	No significant differences	not toxic	–	–	–
senotherapeutic effects	similar	higher	similar	lower	decreased staining	ATAKAWLKGI [Peptide 13]	–	–	–	23.44	decreased	dermal samples only
